Patent EP0603240B1, “SAFENING HERBICIDAL PYRAZOLYLSULFONYLUREAS” (priority 1991, dated 1993)

Tests used:
[1] = tested on: barnyardgrass (Echinochloa crusgalli); test: Example 9, Procedure II: Herbicide No. 1 + pretilachlor (No. 13) with antidotes; format: in vivo
Method: (§1) Containers were filled and compacted with a fumigated silt loam top soil to a depth of about 1.3 cm from the top of the container. A first container was designated as an untreated control, a second container was designated as a herbicide control, and a third container was designated as a herbicide + antidote test container. Each of the containers was seeded with a crop species. A measured amount of herbicide dispersed or dissolved in acetone was applied to a measured quantity of soil. To this same quantity of soil treated with herbicide, there was added a measured amount of antidote dispersed or dissolved in acetone. The quantity of soil treated with the herbicide and antidote was thoroughly mixed to incorporate the herbicide and antidote in the soil uniformly. The seed bed in the third container of soil was covered with the soil treated with the herbicide and antidote and the container was leveled. For each test series, the seed beds of the first and second containers were likewise covered by soil layers. the cover layer of the first container was not treated with herbicide or antidote.
(§2) The containers were then placed on a bench in a greenhouse and sub-irrigated as required for the duration of the test. […] Plant response is measured in terms of percent injury. Antidote efficacy is indicated as the difference in plant injury by the herbicide(s) without the antidote and with the antidote.
(§3) This procedure is the same as Procedure I, but modified in the manner that after incorporation of the chemicals (herbicide and antidote) the containers with the covered seedbed were treated with an initial overhead irrigation equivalent to 0.6 cm rainfall, then subsequently sub-irrigated as required on greenhouse benches.
(§4) In the series of greenhouse tests described below, for routine screening purposes the herbicide/antidote compositions were tested in crop/weed combinations involving corn as the crop and either or both of the weeds barnyardgrass (Echinochloa crusgalli), a monocotyledonous weed, and velvetleaf (Abutilon theophrasti), a dicotyledonous weed. In the tables below, these weeds are indicated by the symbols "BYG" and "VL", respectively.
(§5) In this example the safening effect on a composition comprising Herbicide No. 1 and another leading rice herbicide, i.e., Herbicide No. 13, was investigated using the same antidotes and test procedure described in the preceding example. Herbicide No. 13 is pretilachlor, active ingredient used in the commercial rice herbicides RIFIT®, SOFIT® and SOFIT® SUPER.

[2] = tested on: velvetleaf (Abutilon theophrasti); test: as above; format: in vivo
Method: as §1, §2, §3, §4, §5

[3] = tested on: corn; test: Example 10, Procedure II: Herbicide No. 1 + propachlor (No. 5) with antidotes; format: in vivo
Method: as §1, §2, §3
In this test, the safening effect of various antidotes on the herbicidal combination of Herbicide No. 1 and another α-chloroacetanilide co-herbicide, propachlor, (Herbicide No. 5) was investigated. Propachlor is the active ingredient in the commercial herbicide RAMROD®. Procedure II was also used in this test as in the preceding example.

[4] = tested on: corn; test: Example 12, Procedure II: Herbicide No. 1 + acetochlor (No. 6) with thirteen antidotes; format: in vivo
Summary of the method: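 Herbicide and antidote in acetone were mixed into silt loam used to cover the corn seed bed, alongside untreated and herbicide-only controls. After incorporation, an overhead irrigation equal to 0.6 cm rainfall was given, then sub-irrigation in a greenhouse. Injury was scored as percent; safening is the injury difference without versus with antidote.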

[5] = tested on: corn; test: Example 15, Procedure II: Herbicide No. 1 + butylate (No. 10) with antidotes; format: in vivo
Method: as §1, §2, §3
This example describes experiments designed to investigate the antidotal efficacy of a plurality of antidotes against the herbicidal action of a combination of Herbicide No. 1 and butylate in corn and the prevalent weeds barnyardgrass and velvetleaf. The antidotes used in these experiments were Nos. 1-10, 12, 13 and 15.
The test procedure used in these experiments was that of Procedure II described above. The antidotes were applied to a soil cover layer by pipet after spraying the herbicides onto the soil, followed by incorporation and overhead irrigation.

[6] = tested on: corn; test: Example 13, Procedure II: Herbicide No. 1 + acetochlor (No. 6) with dichloroacetamide antidotes; format: in vivo
Method: as §1, §2, §3
In this example a plurality of dichloroacetamide antidotes were tested for their safening efficacy against a herbicidal composition comprising Herbicide No. 1 and a co-herbicide, acetochlor (Herbicide No. 6) in corn in the presence of velvetleaf. The procedure used in this example was Procedure II above.

[7] = tested on: corn; test: Example 25, greenhouse preemergence test: Antidote Nos. 1 and 2 against Herbicide Nos. 1-3; format: in vivo, Corn (Pioneer 3424 variety); conditions: Preemergence
Method: The chemicals were tested in both preemergence and post-emergence modes of application. The herbicides were prepared and applied as wettable powders; dichlormid was applied as an emulsifiable concentrate, while the naphthalic anhydride was applied as a coating on the corn seed prior to planting.
Test data from the preemergence tests are shown in Table 25A and from the post-emergence tests in Table 25B. In the tables, the concentration of chemicals is shown in terms of active ingredient in grams per hectare (G/ha); concentrations of the naphthalic anhydride were not measured per se, but were present as in conventional, normally-coated applications. Corn injury is shown in terms of percent inhibition of growth.

[8] = Herbicide No.1 0.14 kg/ha + Herbicide No.13 2.24 kg/ha, antidote rate 2.24 kg/ha
[9] = Herbicide No.1 0.14 kg/ha + Herbicide No.13 2.24 kg/ha, antidote rate 8.96 kg/ha
[10] = Herbicide No.1 0.56 kg/ha + Herbicide No.13 2.24 kg/ha, antidote rate 2.24 kg/ha
[11] = Herbicide No.1 0.56 kg/ha + Herbicide No.13 2.24 kg/ha, antidote rate 8.96 kg/ha
[12] = Herbicide No.1 0.14 kg/ha + Herbicide No.5 4.48 kg/ha, antidote rate 2.24 kg/ha
[13] = Herbicide No.1 0.14 kg/ha + Herbicide No.5 4.48 kg/ha, antidote rate 8.96 kg/ha
[14] = Herbicide No.1 0.56 kg/ha + Herbicide No.5 4.48 kg/ha, antidote rate 2.24 kg/ha
[15] = Herbicide No.1 0.56 kg/ha + Herbicide No.5 4.48 kg/ha, antidote rate 8.96 kg/ha
[16] = Herbicide No.1 0.14 kg/ha + Herbicide No.6 2.24 kg/ha, antidote rate 2.24 kg/ha
[17] = Herbicide No.1 0.14 kg/ha + Herbicide No.6 2.24 kg/ha, antidote rate 8.96 kg/ha
[18] = Herbicide No.1 0.56 kg/ha + Herbicide No.6 2.24 kg/ha, antidote rate 2.24 kg/ha
[19] = Herbicide No.1 0.56 kg/ha + Herbicide No.6 2.24 kg/ha, antidote rate 8.96 kg/ha
[20] = Herbicide No.1 0.56 kg/ha + Herbicide No.10 6.72 kg/ha, antidote rate 2.24 kg/ha
[21] = Herbicide No.1 0.56 kg/ha + Herbicide No.10 6.72 kg/ha, antidote rate 8.96 kg/ha
[22] = Herbicide No.1 1.12 kg/ha + Herbicide No.10 6.72 kg/ha, antidote rate 2.24 kg/ha
[23] = Herbicide No.1 1.12 kg/ha + Herbicide No.10 6.72 kg/ha, antidote rate 8.96 kg/ha

SMILES	% Injury BYG [1, 8] [%]	% Injury BYG [1, 9] [%]	% Injury BYG [1, 10] [%]	% Injury BYG [1, 11] [%]	% Injury VL [2, 8] [%]	% Injury VL [2, 9] [%]	% Injury VL [2, 10] [%]	% Injury VL [2, 11] [%]	% Injury Corn [3, 12] [%]	% Injury Corn [3, 13] [%]	% Injury Corn [3, 14] [%]	% Injury Corn [3, 15] [%]	% Injury Corn [4, 16] [%]	% Injury Corn [4, 17] [%]	% Injury Corn [4, 18] [%]	% Injury Corn [4, 19] [%]	% Injury Corn [5, 20] [%]	% Injury Corn [5, 21] [%]	% Injury Corn [5, 22] [%]	% Injury Corn [5, 23] [%]	further results
CC1(C(Cl)Cl)OCCO1 [compound 13]	100	100	100	100	70	75	90	90	0	15	45	10	10	30	35	40	10	15	20	0	
C=CCN(CC=C)C(=O)C(Cl)Cl [compound 1]	100	100	100	100	75	75	85	85	10	0	15	0	10	10	15	15	15	10	20	30	% Injury Corn ([6]; Herbicide No.1 0.56 kg/ha + Herbicide No.6 4.48 kg/ha, antidote rate 0.56 kg/ha): 5%; % Injury Corn ([6]; Herbicide No.1 0.56 kg/ha + Herbicide No.6 4.48 kg/ha, antidote rate 2.24 kg/ha): 10%; % Injury Corn ([6]; Herbicide No.6 4.48 kg/ha, no Herbicide No.1, antidote rate 0.56 kg/ha): 20%; % Injury Corn ([6]; Herbicide No.6 4.48 kg/ha, no Herbicide No.1, antidote rate 2.24 kg/ha): 10%; % Inhibition Corn ([7]; Herbicide No. 1 0.25 G/ha + antidote 7.41 G/ha): 23.2%; % Inhibition Corn ([7]; Herbicide No. 1 0.74 G/ha + antidote 7.41 G/ha): 28.4%; % Inhibition Corn ([7]; Herbicide No. 1 2.5 G/ha + antidote 7.41 G/ha): 26.2%; % Inhibition Corn ([7]; Herbicide No. 2 0.25 G/ha + antidote 7.41 G/ha): 26.5%; % Inhibition Corn ([7]; Herbicide No. 2 0.74 G/ha + antidote 7.41 G/ha): 28.9%; % Inhibition Corn ([7]; Herbicide No. 2 2.5 G/ha + antidote 7.41 G/ha): 37.3%; % Inhibition Corn ([7]; Herbicide No. 3 0.07 G/ha + antidote 7.41 G/ha): 9.3%; % Inhibition Corn ([7]; Herbicide No. 3 0.25 G/ha + antidote 7.41 G/ha): 43.0%; % Inhibition Corn ([7]; Herbicide No. 3 0.74 G/ha + antidote 7.41 G/ha): 83.9%; inhibition at 7.41 g/ha ([7]; Zea mays, pre-emergence, antidote alone 7.41 G/ha, no herbicide, read-out: % Inhibition Corn): 21%
